From BigSolDB 2.1

COc1cc(/C=C/c2ccc(O)cc2)cc(OC)c1
Conditions	solubility (mole fraction)
in PEG-400, 298.2 K	0.346
in PEG-400, 303.2 K	0.351
in PEG-400, 308.2 K	0.358
in PEG-400, 313.2 K	0.366
in PEG-400, 318.2 K	0.373

solubility (mole fraction)
Conditions	298.2 K	303.2 K	308.2 K	313.2 K	318.2 K
in ethanol	0.113	0.117	0.124	0.129	0.136
in propylene glycol	0.25	0.26	0.272	0.281	0.29
in transcutol	0.23	0.235	0.241	0.248	0.253
in water	1.27e-06	1.62e-06	2.04e-06	2.53e-06	2.95e-06
